In US9549932B2, “2-(morpholin-4-yl)-1,7-naphthyridines” (BAYER PHARMA AKTIENGESELLSCHAFT, priority 2014, dated 2017):

Biological target: full-length human ATR protein (Homo sapiens (Human), UniProt Q13535)
Assay: Binding assay ATR (TR-FRET tracer displacement)
Conditions: tracer A, TR-FRET; read-out: ATR binding (tracer A) IC50
How it was run: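 Full-length human GST-ATR co-purified with ATRIP, pre-complexed 30 min at 22 °C with anti-GST-Tb antibody, then pre-bound with compound 10 min. Tracer A or B added (2 µl of 100 nM solution), 30 min at 22 °C.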

Chain of full-length human ATR protein (Q13535 other isoform, or with tags, fused parts or gaps): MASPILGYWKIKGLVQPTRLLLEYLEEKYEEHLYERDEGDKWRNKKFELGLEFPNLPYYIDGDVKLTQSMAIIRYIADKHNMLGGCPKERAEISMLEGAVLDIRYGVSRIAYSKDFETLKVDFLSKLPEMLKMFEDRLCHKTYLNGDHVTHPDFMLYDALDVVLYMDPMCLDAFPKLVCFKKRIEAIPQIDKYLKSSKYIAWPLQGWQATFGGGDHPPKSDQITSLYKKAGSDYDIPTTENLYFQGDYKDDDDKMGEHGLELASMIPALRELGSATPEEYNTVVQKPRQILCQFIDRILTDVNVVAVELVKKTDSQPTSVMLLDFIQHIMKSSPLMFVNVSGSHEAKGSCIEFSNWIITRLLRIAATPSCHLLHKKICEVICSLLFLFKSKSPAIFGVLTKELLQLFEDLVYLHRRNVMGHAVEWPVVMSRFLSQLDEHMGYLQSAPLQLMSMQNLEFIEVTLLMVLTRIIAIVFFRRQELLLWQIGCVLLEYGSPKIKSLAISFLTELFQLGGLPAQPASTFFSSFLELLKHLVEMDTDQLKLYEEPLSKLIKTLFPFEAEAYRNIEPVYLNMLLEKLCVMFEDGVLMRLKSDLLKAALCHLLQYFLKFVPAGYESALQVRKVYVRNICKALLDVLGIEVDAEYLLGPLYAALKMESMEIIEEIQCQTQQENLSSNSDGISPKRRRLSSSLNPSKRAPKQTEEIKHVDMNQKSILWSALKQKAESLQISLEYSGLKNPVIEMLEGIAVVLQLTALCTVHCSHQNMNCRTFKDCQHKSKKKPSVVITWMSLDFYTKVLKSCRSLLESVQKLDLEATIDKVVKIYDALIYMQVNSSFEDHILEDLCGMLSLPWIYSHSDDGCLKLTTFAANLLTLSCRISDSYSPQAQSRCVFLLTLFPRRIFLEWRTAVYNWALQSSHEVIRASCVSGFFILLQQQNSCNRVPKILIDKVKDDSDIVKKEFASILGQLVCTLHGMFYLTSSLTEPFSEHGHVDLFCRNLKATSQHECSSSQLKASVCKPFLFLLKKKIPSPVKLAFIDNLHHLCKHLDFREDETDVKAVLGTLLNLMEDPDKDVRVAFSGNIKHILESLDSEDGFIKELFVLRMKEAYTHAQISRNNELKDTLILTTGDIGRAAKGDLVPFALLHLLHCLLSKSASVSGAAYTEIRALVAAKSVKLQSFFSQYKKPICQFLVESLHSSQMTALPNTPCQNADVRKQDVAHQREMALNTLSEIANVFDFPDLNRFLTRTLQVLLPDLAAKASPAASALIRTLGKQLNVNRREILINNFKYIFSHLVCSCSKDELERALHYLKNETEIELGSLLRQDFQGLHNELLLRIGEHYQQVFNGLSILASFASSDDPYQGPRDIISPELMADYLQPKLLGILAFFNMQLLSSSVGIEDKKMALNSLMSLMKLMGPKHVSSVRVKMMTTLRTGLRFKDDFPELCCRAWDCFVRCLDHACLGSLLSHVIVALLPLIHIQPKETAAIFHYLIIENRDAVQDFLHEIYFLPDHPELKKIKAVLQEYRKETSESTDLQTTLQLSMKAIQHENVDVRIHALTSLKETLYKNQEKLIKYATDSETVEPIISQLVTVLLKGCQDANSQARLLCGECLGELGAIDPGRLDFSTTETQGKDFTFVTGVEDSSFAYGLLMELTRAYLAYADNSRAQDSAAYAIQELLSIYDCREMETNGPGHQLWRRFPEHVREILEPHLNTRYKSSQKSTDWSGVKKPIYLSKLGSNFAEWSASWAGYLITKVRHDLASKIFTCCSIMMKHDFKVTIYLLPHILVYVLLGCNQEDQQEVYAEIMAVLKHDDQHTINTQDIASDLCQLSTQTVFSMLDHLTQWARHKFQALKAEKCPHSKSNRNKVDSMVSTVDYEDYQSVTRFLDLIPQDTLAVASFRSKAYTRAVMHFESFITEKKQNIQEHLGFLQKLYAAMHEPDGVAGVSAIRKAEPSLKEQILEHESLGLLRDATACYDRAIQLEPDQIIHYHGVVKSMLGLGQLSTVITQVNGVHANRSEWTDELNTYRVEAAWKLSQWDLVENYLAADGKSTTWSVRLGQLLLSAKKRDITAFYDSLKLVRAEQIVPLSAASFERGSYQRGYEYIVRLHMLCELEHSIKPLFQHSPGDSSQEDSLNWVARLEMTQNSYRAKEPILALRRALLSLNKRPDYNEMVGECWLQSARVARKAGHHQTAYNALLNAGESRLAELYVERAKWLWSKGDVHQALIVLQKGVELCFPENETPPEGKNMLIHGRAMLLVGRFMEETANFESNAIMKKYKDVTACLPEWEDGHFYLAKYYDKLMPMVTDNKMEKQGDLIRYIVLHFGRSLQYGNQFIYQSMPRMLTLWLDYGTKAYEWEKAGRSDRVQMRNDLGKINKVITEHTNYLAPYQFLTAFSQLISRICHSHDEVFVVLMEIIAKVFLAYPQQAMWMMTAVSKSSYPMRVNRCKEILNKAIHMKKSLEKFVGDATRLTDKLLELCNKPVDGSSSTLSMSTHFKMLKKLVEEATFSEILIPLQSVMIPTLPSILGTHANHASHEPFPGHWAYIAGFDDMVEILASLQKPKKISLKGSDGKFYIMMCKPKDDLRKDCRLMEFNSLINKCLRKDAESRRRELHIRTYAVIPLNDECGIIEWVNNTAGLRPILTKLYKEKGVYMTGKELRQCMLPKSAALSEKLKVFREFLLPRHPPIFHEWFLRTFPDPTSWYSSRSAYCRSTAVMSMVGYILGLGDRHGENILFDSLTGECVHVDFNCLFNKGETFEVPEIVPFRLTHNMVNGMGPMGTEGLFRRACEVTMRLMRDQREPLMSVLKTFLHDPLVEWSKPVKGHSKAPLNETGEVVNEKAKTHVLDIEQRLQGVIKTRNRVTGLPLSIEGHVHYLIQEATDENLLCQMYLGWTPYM
Chain of full-length human ATR protein (Q8WXE1 other isoform, or with tags, fused parts or gaps partner): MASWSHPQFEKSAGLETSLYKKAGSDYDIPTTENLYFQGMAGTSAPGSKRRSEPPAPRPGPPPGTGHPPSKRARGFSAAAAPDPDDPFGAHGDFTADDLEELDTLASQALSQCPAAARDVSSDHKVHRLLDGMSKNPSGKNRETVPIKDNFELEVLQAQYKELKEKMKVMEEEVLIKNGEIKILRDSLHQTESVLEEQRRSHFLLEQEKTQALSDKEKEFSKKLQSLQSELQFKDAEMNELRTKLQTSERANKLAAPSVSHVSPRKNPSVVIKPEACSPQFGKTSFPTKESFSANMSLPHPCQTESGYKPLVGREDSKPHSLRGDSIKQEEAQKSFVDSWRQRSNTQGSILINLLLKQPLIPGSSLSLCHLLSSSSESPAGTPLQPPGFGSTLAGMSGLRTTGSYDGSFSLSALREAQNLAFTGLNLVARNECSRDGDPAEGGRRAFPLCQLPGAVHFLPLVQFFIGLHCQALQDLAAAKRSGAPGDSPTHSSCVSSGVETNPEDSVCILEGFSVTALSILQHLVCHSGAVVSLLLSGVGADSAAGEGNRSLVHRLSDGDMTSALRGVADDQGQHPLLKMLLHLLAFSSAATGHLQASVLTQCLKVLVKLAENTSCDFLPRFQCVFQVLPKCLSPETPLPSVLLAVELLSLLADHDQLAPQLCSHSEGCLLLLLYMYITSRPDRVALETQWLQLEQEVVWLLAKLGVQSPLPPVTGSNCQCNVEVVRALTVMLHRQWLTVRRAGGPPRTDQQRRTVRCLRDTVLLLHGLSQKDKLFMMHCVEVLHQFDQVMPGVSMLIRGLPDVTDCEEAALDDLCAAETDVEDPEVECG

Row | SMILES | IC50
1 | C[C@@H]1COCCN1c1cc(-c2ccncc2F)c2ccnc(-c3ccn[nH]3)c2n1 [Example 230, 4-(3-fluoropyridin-4-yl)-2-[(3R)-3-methylmorpholin-4-yl]-8-(1H-pyrazol-5-yl)-1,7-naphthyridine] | 31.7 nM
2 | C[C@@H]1COCCN1c1cc(N2CCn3ccnc3C2)c2ccnc(-c3ccn[nH]3)c2n1 [Example 86, 4-(5,6-dihydroimidazo[1,2-a]pyrazin-7(8H)-yl)-2-[(3R)-3-methylmorpholin-4-yl]-8-(1H-pyrazol-5-yl)-1,7-naphthyridine] | 10.9 nM
3 | C=C(C)c1cc(N2CCOCC2)nc2c(-c3cc[nH]n3)nccc12 [Example 10, 4-isopropenyl-2-(morpholin-4-yl)-8-(1H-pyrazol-3-yl)-[1,7]naphthyridine] | 126 nM
4 | COc1ccc(F)c(-c2cc(N3CCOCC3)nc3c(-c4ccn[nH]4)nccc23)c1 [Example 338, 4-(2-fluoro-5-methoxyphenyl)-2-(morpholin-4-yl)-8-(1H-pyrazol-5-yl)-1,7-naphthyridine] | 103 nM
5 | Clc1cc(N2CCOCC2)nc2c(-c3cc[nH]n3)nccc12 [Example 62, 4-chloro-2-morpholin-4-yl-8-(1H-pyrazol-3-yl)-[1,7]naphthyridine] | 997 nM
6 | CSc1ncc(-c2cc(N3CCOCC3)nc3c(-c4ccn[nH]4)nccc23)cn1 [Example 395, 4-[2-(methylsulfanyl)pyrimidin-5-yl]-2-(morpholin-4-yl)-8-(1H-pyrazol-5-yl)-1,7-naphthyridine] | 149 nM
7 | COc1cccc(-c2cc(N3CCOCC3)nc3c(-c4ccn[nH]4)nccc23)c1F [Example 317, 4-(2-fluoro-3-methoxyphenyl)-2-(morpholin-4-yl)-8-(1H-pyrazol-5-yl)-1,7-naphthyridine] | 66.5 nM
8 | c1cc(-c2nccc3c(N4CCCCCC4)cc(N4CCOCC4)nc23)[nH]n1 [Example 413, 4-(azepan-1-yl)-2-(morpholin-4-yl)-8-(1H-pyrazol-5-yl)-1,7-naphthyridine] | 279 nM
9 | C[C@@H]1COCCN1c1cc(-c2cnc3n2CCC3)c2ccnc(-c3ccn[nH]3)c2n1 [Example 118, 4-(6,7-dihydro-5H-pyrrolo[1,2-a]imidazol-3-yl)-2-[(3R)-3-methylmorpholin-4-yl]-8-(1H-pyrazol-5-yl)-1,7-naphthyridine] | 10.1 nM
10 | C[C@@H]1COCCN1c1cc(C2=CCCN(C)C2)c2ccnc(-c3ccn[nH]3)c2n1 [Example 242, 2-[(3R)-3-methylmorpholin-4-yl]-4-(1-methyl-1,2,5,6-tetrahydropyridin-3-yl)-8-(1H-pyrazol-5-yl)-1,7-naphthyridine] | 95.9 nM
11 | CC(C)(O)COc1cc(N2CCOCC2)nc2c(-c3ccn[nH]3)nccc12 [Example 45, 2-methyl-1-{[2-(morpholin-4-yl)-8-(1H-pyrazol-5-yl)-1,7-naphthyridin-4-yl]oxy}propan-2-ol] | 293 nM
12 | C[C@@H]1COCCN1c1cc(-c2ccnc(N3CCOCC3)c2F)c2ccnc(-c3ccn[nH]3)c2n1 [Example 223, 4-[3-fluoro-2-(morpholin-4-yl)pyridin-4-yl]-2-[(3R)-3-methylmorpholin-4-yl]-8-(1H-pyrazol-5-yl)-1,7-naphthyridine] | 124 nM
13 | COc1ccc(-c2cc(N3CCOCC3)nc3c(-c4ccn[nH]4)nccc23)c(OC)c1 [Example 332, 4-(2,4-dimethoxyphenyl)-2-(morpholin-4-yl)-8-(1H-pyrazol-5-yl)-1,7-naphthyridine] | 68.1 nM
14 | Cc1ncc(-c2cc(N3CCOC[C@H]3C)nc3c(-c4ccn[nH]4)nccc23)cc1F [Example 233, 4-(5-fluoro-6-methylpyridin-3-yl)-2-[(3R)-3-methylmorpholin-4-yl]-8-(1H-pyrazol-5-yl)-1,7-naphthyridine] | 42 nM
15 | CCNC(=O)N=S(C)(=O)c1ccc(-c2cc(N3CCOCC3)nc3c(-c4ccn[nH]4)nccc23)cc1 (centres unmarked) [Example 192, 1-ethyl-3-(methyl{4-[2-(morpholin-4-yl)-8-(1H-pyrazol-5-yl)-1,7-naphthyridin-4-yl]phenyl}oxido-λ^6-sulfanylidene)urea] | 115 nM
16 | COc1cncc(-c2cc(N3CCOCC3)nc3c(-c4ccn[nH]4)nccc23)c1 [Example 353, 4-(5-methoxypyridin-3-yl)-2-(morpholin-4-yl)-8-(1H-pyrazol-5-yl)-1,7-naphthyridine] | 242 nM
17 | c1ccc2c(c1)CN(c1cc(N3CCOCC3)nc3c(-c4ccn[nH]4)nccc13)C2 [Example 420, 4-(1,3-dihydro-2H-isoindol-2-yl)-2-(morpholin-4-yl)-8-(1H-pyrazol-5-yl)-1,7-naphthyridine] | 602 nM
18 | C[C@@H]1COCCN1c1cc(C2CCSCC2)c2ccnc(-c3ccn[nH]3)c2n1 [Example 241, 2-[(3R)-3-methylmorpholin-4-yl]-8-(1H-pyrazol-5-yl)-4-(tetrahydro-2H-thiopyran-4-yl)-1,7-naphthyridine] | 4.06 nM
19 | COc1cnccc1-c1cc(N2CCOC[C@H]2C)nc2c(-c3ccn[nH]3)nccc12 [Example 227, 4-(3-methoxypyridin-4-yl)-2-[(3R)-3-methylmorpholin-4-yl]-8-(1H-pyrazol-5-yl)-1,7-naphthyridine] | 75.5 nM

Row | SMILES | IC50
20 | C[C@@H]1COCCN1c1cc(N2CCOCC2)nc2c(-c3ccn[nH]3)nccc12 [Example 148, 4-[(3R)-3-methylmorpholin-4-yl]-2-(morpholin-4-yl)-8-(1H-pyrazol-5-yl)-1,7-naphthyridine] | 47.9 nM
21 | C[C@@H]1COCCN1c1cc(-c2cccc(S(C)(=O)=O)c2)c2ccnc(-c3cc[nH]n3)c2n1 [Example 28, 4-(3-methanesulphonylphenyl)-2-((R)-3-methylmorpholin-4-yl)-8-(2H-pyrazol-3-yl)-[1,7]naphthyridine] | 17.6 nM
22 | CC(C)(O)c1cc(N2CCOCC2)nc2c(-c3ccn[nH]3)nccc12 [Example 173, 2-[2-(morpholin-4-yl)-8-(1H-pyrazol-5-yl)-1,7-naphthyridin-4-yl]propan-2-ol] | 205 nM
23 | O=C1CCCN1c1cc(N2CCOCC2)nc2c(-c3ccn[nH]3)nccc12 [Example 215, 1-[2-(morpholin-4-yl)-8-(1H-pyrazol-5-yl)-1,7-naphthyridin-4-yl]pyrrolidin-2-one] | 317 nM
24 | Fc1cccc(-c2cc(N3CCOCC3)nc3c(-c4ccn[nH]4)nccc23)c1F [Example 341, 4-(2,3-difluorophenyl)-2-(morpholin-4-yl)-8-(1H-pyrazol-5-yl)-1,7-naphthyridine] | 26.4 nM
25 | C[C@@H]1COCCN1c1cc(C(C)(O)C2CCOCC2)c2ccnc(-c3ccn[nH]3)c2n1 (stereo partly drawn) [Example 282, 1-{2-[(3R)-3-methylmorpholin-4-yl]-8-(1H-pyrazol-5-yl)-1,7-naphthyridin-4-yl}-1-(tetrahydro-2H-pyran-4-yl)ethanol] | 12.7 nM
26 | Cc1nc(S(C)(=O)=O)ccc1-c1cc(N2CCOC[C@H]2C)nc2c(-c3ccn[nH]3)nccc12 [Example 73, 4-[2-methyl-6-(methylsulfonyl)pyridin-3-yl]-2-[(3R)-3-methylmorpholin-4-yl]-8-(1H-pyrazol-5-yl)-1,7-naphthyridine] | 6.71 nM
27 | C[C@@H]1COCCN1c1cc(-c2cc(Cl)cnc2F)c2ccnc(-c3ccn[nH]3)c2n1 [Example 229, 4-(5-chloro-2-fluoropyridin-3-yl)-2-[(3R)-3-methylmorpholin-4-yl]-8-(1H-pyrazol-5-yl)-1,7-naphthyridine] | 28.4 nM
28 | c1cc(-c2nccc3c(-c4cnc(NC5CC5)nc4)cc(N4CCOCC4)nc23)[nH]n1 [Example 396, N-cyclopropyl-5-[2-(morpholin-4-yl)-8-(1H-pyrazol-5-yl)-1,7-naphthyridin-4-yl]pyrimidin-2-amine] | 174 nM
29 | CN(CC(C)(C)C)c1cc(N2CCOCC2)nc2c(-c3ccn[nH]3)nccc12 [Example 436, N-(2,2-dimethylpropyl)-N-methyl-2-(morpholin-4-yl)-8-(1H-pyrazol-5-yl)-1,7-naphthyridin-4-amine] | 24 nM
30 | CN(c1ccccc1)c1cc(N2CCOCC2)nc2c(-c3ccn[nH]3)nccc12 [Example 410, N-methyl-2-(morpholin-4-yl)-N-phenyl-8-(1H-pyrazol-5-yl)-1,7-naphthyridin-4-amine] | 153 nM
31 | COc1ccc(-c2cc(N3CCOC[C@H]3C)nc3c(-c4ccn[nH]4)nccc23)cn1 [Example 95, 4-(6-methoxypyridin-3-yl)-2-[(3R)-3-methylmorpholin-4-yl]-8-(1H-pyrazol-5-yl)-1,7-naphthyridine] | 11.3 nM
32 | OCc1cc(N2CCOCC2)nc2c(-c3ccn[nH]3)nccc12 [Example 38, [2-(morpholin-4-yl)-8-(2H-pyrazol-3-yl)-[1,7]naphthyridine-4-yl]methanol] | 502 nM
33 | C[C@@H]1COCCN1c1cc(-c2ccn(CC(C)(C)O)n2)c2ccnc(-c3ccn[nH]3)c2n1 [Example 161, 2-methyl-1-(3-{2-[(3R)-3-methylmorpholin-4-yl]-8-(1H-pyrazol-5-yl)-1,7-naphthyridin-4-yl}-1H-pyrazol-1-yl)propan-2-ol] | 62.6 nM
34 | Cc1ccsc1-c1cc(N2CCOCC2)nc2c(-c3ccn[nH]3)nccc12 [Example 373, 4-(3-methylthiophen-2-yl)-2-(morpholin-4-yl)-8-(1H-pyrazol-5-yl)-1,7-naphthyridine] | 38.1 nM
35 | C[C@@H]1COCCN1c1cc(-c2ccccc2N(C)C)c2ccnc(-c3ccn[nH]3)c2n1 [Example 122, N,N-dimethyl-2-{2-[(3R)-3-methylmorpholin-4-yl]-8-(1H-pyrazol-5-yl)-1,7-naphthyridin-4-yl}aniline] | 19.4 nM
36 | O=C(NC1CC1)c1cccc(-c2cc(N3CCOCC3)nc3c(-c4ccn[nH]4)nccc23)c1 [Example 330, N-cyclopropyl-3-[2-(morpholin-4-yl)-8-(1H-pyrazol-5-yl)-1,7-naphthyridin-4-yl]benzamide] | 91.3 nM
37 | C[C@@H]1COCCN1c1cc(C2CCCN(C)C2)c2ccnc(-c3ccn[nH]3)c2n1 (stereo partly drawn) [Example 244, 2-[(3R)-3-methylmorpholin-4-yl]-4-[1-methylpiperidin-3-yl]-8-(1H-pyrazol-5-yl)-1,7-naphthyridine] | 159 nM

Same assay, conditions: tracer B, TR-FRET; read-out: ATR binding (tracer B) IC50

Row | SMILES | IC50
38 | C=C(C)c1cc(N2CCOCC2)nc2c(-c3cc[nH]n3)nccc12 [Example 10, 4-isopropenyl-2-(morpholin-4-yl)-8-(1H-pyrazol-3-yl)-[1,7]naphthyridine] | 43.9 nM
39 | Clc1cc(N2CCOCC2)nc2c(-c3cc[nH]n3)nccc12 [Example 62, 4-chloro-2-morpholin-4-yl-8-(1H-pyrazol-3-yl)-[1,7]naphthyridine] | 707 nM
40 | C[C@@H]1COCCN1c1cc(-c2cccc(S(C)(=O)=O)c2)c2ccnc(-c3cc[nH]n3)c2n1 [Example 28, 4-(3-methanesulphonylphenyl)-2-((R)-3-methylmorpholin-4-yl)-8-(2H-pyrazol-3-yl)-[1,7]naphthyridine] | 8.4 nM
41 | OCc1cc(N2CCOCC2)nc2c(-c3ccn[nH]3)nccc12 [Example 38, [2-(morpholin-4-yl)-8-(2H-pyrazol-3-yl)-[1,7]naphthyridine-4-yl]methanol] | 405 nM
